Results on one compound are retold here after US8026236B2, “6-phenyl-1H-imidazo[4,5-c]pyridine-4-carbonitrile derivatives” (N.V. Organon, priority 2009, dated 2011).

The test concerns the target recombinant human Cathepsin S (Homo sapiens, UniProt P25774). In words: Cathepsin S assay procedure (inhibition of recombinant human Cathepsin S, fluorogenic substrate Z-Val-Val-Arg-AMC). Type of test: biochemical. Conditions: pH5.5, 20 minutes, read-out: pIC50 (negative logarithm of the IC50 concentration) for inhibition of human cathepsin S (converted). How it is done:
To a 384 well microtitre plate is added 10 μl of a 1000 solution of test compound in assay buffer (100 mM sodium acetate pH5.5, 5 mM EDTA, 5 mM dithiothreitol) with 10% dimethylsulfoxide (DMSO), plus 200 of 2500 solution of the substrate Z-Val-Val-Arg-AMC (7-amido-coumarine derivative of the tripeptide N-benzyloxy-carbonyl-Val-Val-Arg-OH) in assay buffer and 45 μl of assay buffer. 25 μl of a 2 mg/l solution of activated recombinant human cathepsin S, in assay buffer, is then added to the well, yielding a final inhibitor concentration of 10 μM. Enzyme activity is determined by measuring the fluorescence of the liberated aminomethylcoumarin at […] using 390 nm excitation, at 20 minutes. Percentage enzyme activity is calculated by comparison of this activity to that of a solution containing no inhibitor. Compounds are subsequently subjected to a dose response curve analysis in order to determine IC50 values for active compounds (where IC50 is the concentration of test compound causing 50% inhibition of the enzymatic activity). Compounds of the invention typically have a pIC50 (negative logarithm of the IC50 concentration) for inhibition of human cathepsin S of more than 6. Most compounds of the invention have a pIC50 of more than 7, such as exemplified by the compounds of examples 1a, 1b, 2a, 7d, 12a, 14a, 14b, 14c, 14d, 14e, 14f, 14g, 14h, 14i, 17, 18.

Structures are written as SMILES.

Chain of recombinant human Cathepsin S (P25774 115-331): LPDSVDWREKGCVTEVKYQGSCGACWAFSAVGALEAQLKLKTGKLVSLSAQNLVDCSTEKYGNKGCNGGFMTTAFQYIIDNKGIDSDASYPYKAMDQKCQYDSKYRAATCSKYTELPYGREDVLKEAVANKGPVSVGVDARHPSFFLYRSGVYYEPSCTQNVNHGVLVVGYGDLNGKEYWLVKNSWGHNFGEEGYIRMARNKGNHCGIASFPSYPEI

Turning to `CC(=O)Nc1cccc(COc2ccc(-c3cc4c(ncn4C)c(C#N)n3)cc2C(F)(F)F)c1` [Example 17], the IC50 is less than 100 nM.
